From ChEMBL document CHEMBL1201862, “PubChem BioAssay data set” (2004)
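Briefly, cells in 96-well plates were exposed to five compound concentrations for 48 h, and endpoints were estimated by linear interpolation. GI50 marks 50% less growth.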 Calls of active or inactive are those of the source. No stated cut-off is given here; in the data, active = GI50 up to about 1.1 µM and inactive = higher.

Key:
Assay in all cases: NCI anticancer screen, dose series, 48 h
NCI-H460 = system: NCI-H460
SF-539 = system: SF-539
T47D = system: T47D
OVCAR-4 = system: OVCAR-4
HCC 2998 = system: HCC 2998
SK-MEL-28 = system: SK-MEL-28
CAKI-1 = system: CAKI-1
MOLT-4 = system: MOLT-4
U-251 = system: U-251
SN12C = system: SN12C
SF-295 = system: SF-295
SW-620 = system: SW-620
LXFL 529 = system: LXFL 529
NCI-H23 = system: NCI-H23
HCT-116 = system: HCT-116
LOX IMVI = system: LOX IMVI
MDA-N = system: MDA-N
M14 = system: M14
SK-OV-3 = system: SK-OV-3
MDA-MB-435 = system: MDA-MB-435

Measured: GI50

O=C1C2CCN(CC2)C1CN1CCOCC1 (stereo not given)
inactive: NCI-H460 17.7 µM | SF-539 15.4 µM | T47D 1.92 µM | OVCAR-4 4.04 µM | HCC 2998 15.7 µM | SK-MEL-28 3.79 µM | CAKI-1 2.16 µM | MOLT-4 2.33 µM | U-251 11 µM | SN12C 4.05 µM | SF-295 19.4 µM | SW-620 1.72 µM | LXFL 529 2 µM | NCI-H23 9.95 µM | HCT-116 1.87 µM | LOX IMVI 5.16 µM | MDA-N 5.75 µM | M14 2.96 µM | SK-OV-3 17.2 µM | MDA-MB-435 15.5 µM
